Tested on: Wnt/β-catenin signaling
Assay: TOPFlash reporter assay in 293FT cells
Format: cell-based, human
Conditions: 1 μM 6BIO together with drug at indicated concentrations, 24 hours
Experimental: TOPFlash assay was performed in 96-well plate. For each well, 293T cells were transfected with 0.22 μg TOPFlash (or FOPFlash with mutant TCF binding sites) and 0.02 μg pRL-SV40P using lipofectamine 3000. For co-transfection with other plasmids, 0.1 μg additional DNA was used. […] The luciferase activity was measured 24 hours later by using Dual-Glo® Luciferase Assay System (Promega, E2940) according to the recommended protocol. The TOPFlash or FOPFlash activity was normalized to Renilla luciferase signals.
TOPFlash assay was performed as described above. Briefly, for each well of a 96-well plate 293FT cells were transfected with 0.22 μg TOPFlash (or FOPFlash with mutant TCF binding sites) and 0.02 μg pRL-SV40P using lipofectamine 3000. For co-transfection with other plasmids, 0.1 μg additional DNA was used. Four hours after transfection, 293FT cells were treated with DMSO, 1 μM 6B10 and 1 μM 6B10 together with pazopanib, orlistat and topotecan at varying concentrations for 24 hours. The luciferase activity was then measured using Dual-Glo® Luciferase Assay System (Promega, E2940) according to the recommended protocol. The TOPFlash or FOPFlash activity was normalized to Renilla luciferase signals.

| Compound | TOPFlash activity normalized to Renilla luciferase activity |
| --- | --- |
| CCCCCCCCCCC[C@@H](C[C@@H]1OC(=O)[C@H]1CCCCCC)OC(=O)[C@H](CC(C)C)NC=O [orlistat, (S)-((S)-1-((2S,3S)-3-Hexyl-4-oxooxetan-2-yl)tridecan-2-yl) 2-formamido-4-methylpentanoate] | Wnt signaling inhibition |
| CC[C@@]1(O)C(=O)OCc2c1cc1n(c2=O)Cc2cc3c(CN(C)C)c(O)ccc3nc2-1.Cl [topotecan, (S)-10-[(dimethylamino)methyl]-4-ethyl-4,9-dihydroxy-1H-pyrano[3′,4′:6,7]indolizino[1,2-b]quinoline-3,14(4H,12H)-dione monohydrochloride] | Wnt signaling inhibition |

From patent US20180344715A1, “WNT/BETA-CATENIN SIGNAL TRANSDUCTION INHIBITORS AND THEIR USE IN TREATMENT OR PREVENTION OF DISEASES AND CONDITIONS LINKED WITH SAID TRANSDUCTION” (BERGEN TEKNOLOGIOVERFORING AS, priority 2015, published 2018)
